Literature values, collected in patent US6472370B1, “Anticonvulsant derivatives useful in treating post traumatic stress disorder” (Ortho-McNeil Pharmaceutical, Inc., priority 1998, dated 2002).
Where two headings read alike, the source gives them in different places.

Legend:
[1] = test system: seizures in several rodent models of epilepsy
kindling seizures = conditions: animal (rodent) model of kindling
[2] = test system: simple and complex partial seizures and secondarily generalized seizures; conditions: clinical trials of human epilepsy; adjunctive therapy or monotherapy

CC1(C)O[C@@H]2[C@@H](CO[C@@]3(COS(N)(=O)=O)OC(C)(C)O[C@@H]23)O1 [topiramate, 2,3:4,5-bis-O-(1-methylethylidene)-β-D-fructopyranose sulfamate]
block of seizures [1]: effectively block seizures | block of seizures in kindled epilepsy / kindling seizures (kindling seizures): effectively block seizures | block of seizures in kindled epilepsy / kindling seizures (kindling seizures; listed as Topiramate): effective | efficacy in treating simple and complex partial seizures and secondarily generalized seizures [2]: effective
